Earlier results as cited in PMC8302504, “Efficacy of Fenfluramine and Norfenfluramine Enantiomers and Various Antiepileptic Drugs in a Zebrafish Model of Dravet Syndrome” (Neurochemical Research, 2021).

Conditions: 5 dpf zebrafish larvae, 1 h incubation with 15 µg/mL; cited from earlier work

## O=C(CCCN1CCC(O)(c2ccc(Cl)cc2)CC1)c1ccc(F)cc1 [haloperidol]
  head uptake (recovered concentration): 21.6 µg/g
